# Calls of active or inactive are those of the source.
# Legend:
# [1] = Luminescence Cell-Based Dose Retest to Confirm Inhibitors of Cancer Stem Cells. [Related pubchem assays (depositor defined):AID2717, AID2721]; format: functional; details: Homo sapiens
# [2] = biological target: Neurotensin receptor type 1 (Homo sapiens, UniProt P30989); format: functional;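 note: Image-based confirmatory dose-response assay measuring agonist activity at NTR1; NTR1-expressing U2OS osteosarcoma cells imaged for beta-arrestin GFP spot formation; agonist potency where compounds increase beta-arrestin recruitment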
# Neurotensin receptor type 1, sequence (P30989 whole entry): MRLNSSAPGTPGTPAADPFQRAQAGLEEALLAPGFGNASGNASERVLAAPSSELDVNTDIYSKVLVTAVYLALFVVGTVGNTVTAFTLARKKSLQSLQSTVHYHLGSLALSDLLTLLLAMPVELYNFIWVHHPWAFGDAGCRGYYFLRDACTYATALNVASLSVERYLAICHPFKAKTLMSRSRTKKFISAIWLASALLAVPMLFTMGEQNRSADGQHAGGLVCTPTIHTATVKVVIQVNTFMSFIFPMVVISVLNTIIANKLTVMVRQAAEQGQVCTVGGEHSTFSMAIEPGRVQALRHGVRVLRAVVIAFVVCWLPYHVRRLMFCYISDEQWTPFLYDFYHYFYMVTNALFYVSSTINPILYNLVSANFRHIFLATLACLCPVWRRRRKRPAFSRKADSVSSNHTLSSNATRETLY
# [3] = biological target: T1, Microphthalmia-associated transcription factor (Homo sapiens, UniProt O75030); experiment: reducers of TRPM1 reporter luminescence, concentration series – cell-based, SK-MEL-5, cherry-picked, set 3, MITF inhibitor project, dose response (AID 493073); format: functional;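 note: SK-MEL-5 melanoma cells with luciferase driven by the MITF target TRPM1 promoter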
# T1 sequence (O75030 whole entry): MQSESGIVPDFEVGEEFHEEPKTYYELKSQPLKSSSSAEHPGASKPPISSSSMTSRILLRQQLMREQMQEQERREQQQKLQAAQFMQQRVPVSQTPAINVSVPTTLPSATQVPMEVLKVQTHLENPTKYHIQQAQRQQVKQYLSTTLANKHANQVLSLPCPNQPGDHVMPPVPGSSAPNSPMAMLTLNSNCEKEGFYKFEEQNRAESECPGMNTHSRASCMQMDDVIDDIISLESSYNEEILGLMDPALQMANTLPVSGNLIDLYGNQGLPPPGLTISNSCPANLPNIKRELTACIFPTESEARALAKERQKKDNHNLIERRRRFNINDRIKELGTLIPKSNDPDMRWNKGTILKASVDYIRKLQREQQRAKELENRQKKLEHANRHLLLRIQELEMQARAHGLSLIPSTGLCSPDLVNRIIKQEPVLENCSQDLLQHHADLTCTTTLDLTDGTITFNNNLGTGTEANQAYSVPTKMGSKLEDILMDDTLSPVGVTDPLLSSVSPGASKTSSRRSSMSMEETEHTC
# [4] = biological target: Heat shock protein HSP 90-alpha (Homo sapiens, UniProt P07900); format: functional, organism-based
# Melanocortin receptor 4 = Melanocortin receptor 4 (Homo sapiens, UniProt P32245); experiment: inhibitors of MC4R cAMP signaling – cell-based, TR-FRET, biased antagonists, dose response (AID 602298); format: functional;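 note: antagonist potency against agonist-stimulated cAMP production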
# Melanocortin receptor 4, sequence (P32245 whole entry): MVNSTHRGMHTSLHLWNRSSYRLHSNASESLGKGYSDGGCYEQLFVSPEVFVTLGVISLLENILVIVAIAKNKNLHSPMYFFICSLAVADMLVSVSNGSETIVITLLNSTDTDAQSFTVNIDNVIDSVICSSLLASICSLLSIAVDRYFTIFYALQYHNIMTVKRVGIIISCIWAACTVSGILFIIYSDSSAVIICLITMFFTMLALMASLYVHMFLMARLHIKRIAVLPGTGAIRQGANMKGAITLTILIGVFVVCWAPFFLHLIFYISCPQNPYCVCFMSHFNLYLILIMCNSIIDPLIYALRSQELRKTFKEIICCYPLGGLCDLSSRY
# [5] = cAMP pathway inhibition in counterscreen cell line – TR-FRET cAMP detection, counter-screen for MC4R biased antagonist project, dose response (AID 602305); format: functional, cell-based;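 note: U2OS cells stimulated with forskolin near its EC80 as the cAMP inducer; potency is for inhibition of forskolin-stimulated cAMP signaling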
# [6] = biological target: T2, Rac GTPase-activating protein 1 (Homo sapiens, UniProt Q9H0H5); experiment: blockers of MgcRacGAP-driven Rac1 GTP hydrolysis – biochemical, ADP Hunter fluorescence, primary and confirmatory, confirmation (AID 624330); format: functional
# T2 sequence (Q9H0H5 whole entry): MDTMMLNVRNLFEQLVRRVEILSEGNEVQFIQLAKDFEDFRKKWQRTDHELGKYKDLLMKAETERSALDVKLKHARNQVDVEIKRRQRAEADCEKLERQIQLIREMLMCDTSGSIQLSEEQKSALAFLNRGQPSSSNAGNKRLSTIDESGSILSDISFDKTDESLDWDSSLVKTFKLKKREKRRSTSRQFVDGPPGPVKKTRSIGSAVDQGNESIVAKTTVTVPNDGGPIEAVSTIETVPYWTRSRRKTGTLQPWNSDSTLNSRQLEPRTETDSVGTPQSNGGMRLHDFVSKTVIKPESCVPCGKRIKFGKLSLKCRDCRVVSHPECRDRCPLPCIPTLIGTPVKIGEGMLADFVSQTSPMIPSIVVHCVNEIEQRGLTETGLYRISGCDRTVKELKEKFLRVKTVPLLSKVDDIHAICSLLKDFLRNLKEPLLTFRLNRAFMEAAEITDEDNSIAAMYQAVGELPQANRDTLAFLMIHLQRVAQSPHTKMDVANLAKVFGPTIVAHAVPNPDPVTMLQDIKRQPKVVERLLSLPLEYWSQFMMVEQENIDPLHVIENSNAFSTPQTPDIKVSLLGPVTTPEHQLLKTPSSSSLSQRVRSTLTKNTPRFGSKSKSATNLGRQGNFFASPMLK
# [7] = biological target: T3, Short transient receptor potential channel 4 (Mus musculus, UniProt Q9QUQ5); experiment: block of DAMGO-driven TRPC4 calcium entry – cell-based, HEK293 TRPC4/mu-opioid, Fluo-4 calcium, dose response (AID 434942); format: functional;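 note: potency of inhibitors blocking the TRPC4 calcium response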
# T3 sequence (Q9QUQ5 whole entry): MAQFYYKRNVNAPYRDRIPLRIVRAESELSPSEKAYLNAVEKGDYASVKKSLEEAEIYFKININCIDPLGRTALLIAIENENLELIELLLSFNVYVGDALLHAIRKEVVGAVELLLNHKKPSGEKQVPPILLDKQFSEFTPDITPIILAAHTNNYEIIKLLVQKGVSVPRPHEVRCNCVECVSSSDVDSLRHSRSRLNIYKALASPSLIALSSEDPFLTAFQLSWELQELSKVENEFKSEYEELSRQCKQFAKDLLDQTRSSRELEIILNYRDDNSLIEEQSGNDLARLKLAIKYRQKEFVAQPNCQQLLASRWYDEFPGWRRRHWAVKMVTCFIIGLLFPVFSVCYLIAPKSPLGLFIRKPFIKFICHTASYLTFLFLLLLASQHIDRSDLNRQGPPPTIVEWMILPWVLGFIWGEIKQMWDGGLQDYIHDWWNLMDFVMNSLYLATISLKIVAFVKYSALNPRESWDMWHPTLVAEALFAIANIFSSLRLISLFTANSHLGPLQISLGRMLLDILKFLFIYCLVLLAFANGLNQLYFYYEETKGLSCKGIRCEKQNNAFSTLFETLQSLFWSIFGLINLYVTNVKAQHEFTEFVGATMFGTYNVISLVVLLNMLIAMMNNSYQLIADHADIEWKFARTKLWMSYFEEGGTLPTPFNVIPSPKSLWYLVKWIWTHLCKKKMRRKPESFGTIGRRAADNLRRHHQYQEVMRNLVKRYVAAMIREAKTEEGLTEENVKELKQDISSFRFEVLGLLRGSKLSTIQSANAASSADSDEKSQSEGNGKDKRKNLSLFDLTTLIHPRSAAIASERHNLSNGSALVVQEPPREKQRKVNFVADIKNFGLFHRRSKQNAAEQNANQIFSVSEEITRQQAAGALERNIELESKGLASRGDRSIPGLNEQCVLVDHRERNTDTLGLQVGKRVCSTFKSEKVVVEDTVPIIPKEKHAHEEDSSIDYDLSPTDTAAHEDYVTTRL
# Bcl-2-like protein 10 = Bcl-2-like protein 10 (Homo sapiens, UniProt Q9HD36); experiment: Bcl-B/TR3 peptide binding disruption – biochemical, fluorescence polarization, FITC-TR3 peptide, selectivity assay for Bfl-1 inhibitor project, primary screen (AID 748);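 note: fluorescence polarization from a fluorescein-labelled TR3 peptide binding purified Bcl-B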
# Bcl-2-like protein 10, sequence (Q9HD36 whole entry): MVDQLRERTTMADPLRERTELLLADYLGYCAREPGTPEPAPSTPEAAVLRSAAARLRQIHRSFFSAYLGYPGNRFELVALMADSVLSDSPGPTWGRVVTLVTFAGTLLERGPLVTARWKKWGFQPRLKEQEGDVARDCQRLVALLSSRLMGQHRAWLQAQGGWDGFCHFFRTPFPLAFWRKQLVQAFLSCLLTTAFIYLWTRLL
# HEK293 [8] = experiment: inhibition of NOD1-driven NF-kB reporter – cell-based, luminescence, uHTS, primary screen (AID 1578); format: functional; details: Homo sapiens
# HEK293 [9] = experiment: cells; format: functional, cell-based; details: Homo sapiens
# HEK293 [10] = experiment: cells; format: functional, cell-based; details: Homo sapiens; remark: listed apart in the source
# [11] = biological target: T4, Nucleotide-binding oligomerization domain-containing protein 2 (Homo sapiens, UniProt Q9HC29); experiment: inhibition of NOD2-driven NF-kB reporter – cell-based, luminescence, uHTS, HEK293 (AID 1566); format: functional
# T4 sequence (Q9HC29 whole entry, the tested form may be a part): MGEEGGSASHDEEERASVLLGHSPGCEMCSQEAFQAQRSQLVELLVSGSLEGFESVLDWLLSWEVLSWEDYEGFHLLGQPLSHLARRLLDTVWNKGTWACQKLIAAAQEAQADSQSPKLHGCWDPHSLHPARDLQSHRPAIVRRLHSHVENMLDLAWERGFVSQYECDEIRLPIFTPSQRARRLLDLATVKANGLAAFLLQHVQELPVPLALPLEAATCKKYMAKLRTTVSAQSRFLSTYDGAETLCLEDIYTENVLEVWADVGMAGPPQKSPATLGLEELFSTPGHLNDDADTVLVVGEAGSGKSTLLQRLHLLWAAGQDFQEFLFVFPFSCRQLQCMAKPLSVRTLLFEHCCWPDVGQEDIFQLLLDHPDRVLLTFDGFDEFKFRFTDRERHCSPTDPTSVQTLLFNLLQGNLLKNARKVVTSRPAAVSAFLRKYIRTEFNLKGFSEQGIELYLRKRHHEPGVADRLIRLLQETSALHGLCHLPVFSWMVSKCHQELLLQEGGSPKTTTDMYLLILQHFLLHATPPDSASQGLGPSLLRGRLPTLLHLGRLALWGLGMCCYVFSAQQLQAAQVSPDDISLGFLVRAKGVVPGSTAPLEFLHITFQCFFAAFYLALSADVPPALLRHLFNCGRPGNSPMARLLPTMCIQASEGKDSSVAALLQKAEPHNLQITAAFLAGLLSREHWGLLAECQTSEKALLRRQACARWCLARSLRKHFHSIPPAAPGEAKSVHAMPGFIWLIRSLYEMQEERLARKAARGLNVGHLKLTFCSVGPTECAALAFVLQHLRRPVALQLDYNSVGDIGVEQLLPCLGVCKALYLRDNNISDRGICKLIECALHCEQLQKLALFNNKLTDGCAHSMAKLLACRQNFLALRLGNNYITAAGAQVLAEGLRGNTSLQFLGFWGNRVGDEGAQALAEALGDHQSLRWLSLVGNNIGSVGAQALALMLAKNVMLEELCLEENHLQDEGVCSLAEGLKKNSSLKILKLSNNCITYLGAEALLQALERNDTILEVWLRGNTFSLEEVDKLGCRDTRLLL
# HEK293 [12] = experiment: NOD2 signaling inhibitors in MDP-stimulated cells, cell-based, uHTS, luminescence (AID 2001); format: functional; details: Homo sapiens
# HEK293 [13] = experiment: cells; format: functional, cell-based; details: Homo sapiens; remark: listed apart in the source
# Tumor necrosis factor = Tumor necrosis factor (Homo sapiens, UniProt P01375); experiment: analog potency on TNFa NF-kB signaling – cell-based, revised, SAR follow-up (AID 2337); format: functional
# Tumor necrosis factor, sequence (P01375 whole entry, the tested form may be a part): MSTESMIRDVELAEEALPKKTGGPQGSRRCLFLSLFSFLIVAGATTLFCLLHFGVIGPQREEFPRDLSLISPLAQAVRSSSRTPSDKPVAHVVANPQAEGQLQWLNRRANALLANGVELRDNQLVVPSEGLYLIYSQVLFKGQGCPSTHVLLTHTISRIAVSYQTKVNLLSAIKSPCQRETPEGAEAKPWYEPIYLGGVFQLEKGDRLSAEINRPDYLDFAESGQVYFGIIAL
# [14] = biological target: T5, Nucleotide-binding oligomerization domain-containing protein 1 (Homo sapiens, UniProt Q9Y239); experiment: blockers of NOD1 pathway activity – revised, SAR follow-up (AID 2333); format: functional
# T5 sequence (Q9Y239 whole entry): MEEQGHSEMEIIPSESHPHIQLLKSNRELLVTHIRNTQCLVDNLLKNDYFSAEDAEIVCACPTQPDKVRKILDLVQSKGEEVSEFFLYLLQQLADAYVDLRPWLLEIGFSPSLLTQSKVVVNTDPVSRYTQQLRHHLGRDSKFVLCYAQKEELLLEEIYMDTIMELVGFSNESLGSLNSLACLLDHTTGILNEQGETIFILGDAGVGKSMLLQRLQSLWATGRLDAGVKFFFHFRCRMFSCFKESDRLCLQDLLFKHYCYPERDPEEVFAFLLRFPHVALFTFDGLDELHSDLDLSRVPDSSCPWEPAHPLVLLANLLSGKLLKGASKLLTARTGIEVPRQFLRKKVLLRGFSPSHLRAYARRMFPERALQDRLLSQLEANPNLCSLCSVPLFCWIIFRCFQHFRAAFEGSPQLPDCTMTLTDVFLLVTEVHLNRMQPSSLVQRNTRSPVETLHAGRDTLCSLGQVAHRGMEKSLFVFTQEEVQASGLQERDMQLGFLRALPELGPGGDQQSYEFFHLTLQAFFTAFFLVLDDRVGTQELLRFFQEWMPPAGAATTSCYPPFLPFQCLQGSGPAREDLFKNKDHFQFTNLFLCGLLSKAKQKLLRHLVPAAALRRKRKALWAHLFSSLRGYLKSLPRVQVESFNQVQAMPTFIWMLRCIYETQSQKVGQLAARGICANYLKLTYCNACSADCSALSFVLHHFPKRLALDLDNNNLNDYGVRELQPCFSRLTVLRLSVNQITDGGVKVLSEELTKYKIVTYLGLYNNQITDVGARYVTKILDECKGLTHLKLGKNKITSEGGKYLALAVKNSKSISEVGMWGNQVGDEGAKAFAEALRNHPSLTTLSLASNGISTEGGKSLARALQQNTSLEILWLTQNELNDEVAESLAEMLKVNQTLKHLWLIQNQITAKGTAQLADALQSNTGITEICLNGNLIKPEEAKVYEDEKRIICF
# [15] = biological target: T4, Nucleotide-binding oligomerization domain-containing protein 2; experiment: PubChem AID 2334; format: functional
# [16] = biological target: T6, Small ubiquitin-related modifier 1 (Homo sapiens, UniProt P63165); experiment: SUMO1 protein interaction blockers, potency – biochemical, fluorescence polarization, uHTS hits, dose response (AID 624382); format: functional; details: read-out: IC50_Mean
# T6 sequence (P63165 whole entry): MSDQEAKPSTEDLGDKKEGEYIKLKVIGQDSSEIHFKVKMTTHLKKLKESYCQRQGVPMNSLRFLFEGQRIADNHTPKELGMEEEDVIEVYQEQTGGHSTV
# [17] = biological target: T6, Small ubiquitin-related modifier 1; experiment: SUMO1 protein-protein binding blockers, potency – biochemical, FRET, dose response (AID 624383); format: functional; details: read-out: IC50_Mean
# HEK293 [18] = experiment: cells; details: Homo sapiens
# [19] = biological target: Peroxisome proliferator-activated receptor gamma/Nuclear receptor coactivator 1 (Homo sapiens, UniProt P37231); experiment: TR-FRET dose response biochemical High Throughput Screening assay for agonists of the steroid receptor coactivator 1 (SRC-1) recruitment by the peroxisome proliferator-activated receptor gamma (PPAR gamma): non-selective agonists. [Related pubchem assays (depositor defined):AID1300, AID1808, AID504735, AID631]; format: protein assay
# [20] = biological target: Peroxisome proliferator-activated receptor gamma/Nuclear receptor coactivator 3 (Homo sapiens, UniProt P37231); experiment: TR-FRET dose response biochemical High Throughput Screening assay for agonists of the steroid receptor coactivator 3 (SRC-3) recruitment by the peroxisome proliferator-activated receptor gamma (PPAR gamma): non-selective agonists. [Related pubchem assays: 1301 (Confirmation screen.), 1048 (Primary screen.)]; format: functional
# [21] = biological target: Peroxisome proliferator-activated receptor gamma/Nuclear receptor coactivator 2 (Homo sapiens, UniProt P37231); experiment: TR-FRET dose response biochemical High Throughput Screening assay for agonists of the steroid receptor coactivator 2 (SRC-2) recruitment by the peroxisome proliferator-activated receptor gamma (PPAR gamma): non-selective agonists. [Related pubchem assays: 1297, 1032 ]; format: functional
# Peroxisome proliferator-activated receptor gamma/Nuclear receptor coactivator 2, sequence (P37231 whole entry): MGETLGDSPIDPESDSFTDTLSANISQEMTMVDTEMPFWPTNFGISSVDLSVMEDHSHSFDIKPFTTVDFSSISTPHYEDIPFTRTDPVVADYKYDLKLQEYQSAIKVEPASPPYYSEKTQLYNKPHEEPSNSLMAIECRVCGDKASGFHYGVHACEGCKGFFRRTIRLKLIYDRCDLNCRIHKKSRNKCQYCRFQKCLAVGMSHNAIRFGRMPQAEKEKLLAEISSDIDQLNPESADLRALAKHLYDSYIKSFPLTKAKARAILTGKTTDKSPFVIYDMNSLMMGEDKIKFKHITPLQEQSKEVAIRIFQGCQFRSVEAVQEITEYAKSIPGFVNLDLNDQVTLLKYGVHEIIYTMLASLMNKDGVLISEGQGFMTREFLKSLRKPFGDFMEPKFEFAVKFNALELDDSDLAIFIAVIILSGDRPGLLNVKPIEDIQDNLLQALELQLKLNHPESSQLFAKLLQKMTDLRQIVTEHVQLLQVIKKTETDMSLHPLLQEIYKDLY
# Peroxisome proliferator-activated receptor gamma/Nuclear receptor coactivator 2, sequence (Q15596 whole entry, further chain): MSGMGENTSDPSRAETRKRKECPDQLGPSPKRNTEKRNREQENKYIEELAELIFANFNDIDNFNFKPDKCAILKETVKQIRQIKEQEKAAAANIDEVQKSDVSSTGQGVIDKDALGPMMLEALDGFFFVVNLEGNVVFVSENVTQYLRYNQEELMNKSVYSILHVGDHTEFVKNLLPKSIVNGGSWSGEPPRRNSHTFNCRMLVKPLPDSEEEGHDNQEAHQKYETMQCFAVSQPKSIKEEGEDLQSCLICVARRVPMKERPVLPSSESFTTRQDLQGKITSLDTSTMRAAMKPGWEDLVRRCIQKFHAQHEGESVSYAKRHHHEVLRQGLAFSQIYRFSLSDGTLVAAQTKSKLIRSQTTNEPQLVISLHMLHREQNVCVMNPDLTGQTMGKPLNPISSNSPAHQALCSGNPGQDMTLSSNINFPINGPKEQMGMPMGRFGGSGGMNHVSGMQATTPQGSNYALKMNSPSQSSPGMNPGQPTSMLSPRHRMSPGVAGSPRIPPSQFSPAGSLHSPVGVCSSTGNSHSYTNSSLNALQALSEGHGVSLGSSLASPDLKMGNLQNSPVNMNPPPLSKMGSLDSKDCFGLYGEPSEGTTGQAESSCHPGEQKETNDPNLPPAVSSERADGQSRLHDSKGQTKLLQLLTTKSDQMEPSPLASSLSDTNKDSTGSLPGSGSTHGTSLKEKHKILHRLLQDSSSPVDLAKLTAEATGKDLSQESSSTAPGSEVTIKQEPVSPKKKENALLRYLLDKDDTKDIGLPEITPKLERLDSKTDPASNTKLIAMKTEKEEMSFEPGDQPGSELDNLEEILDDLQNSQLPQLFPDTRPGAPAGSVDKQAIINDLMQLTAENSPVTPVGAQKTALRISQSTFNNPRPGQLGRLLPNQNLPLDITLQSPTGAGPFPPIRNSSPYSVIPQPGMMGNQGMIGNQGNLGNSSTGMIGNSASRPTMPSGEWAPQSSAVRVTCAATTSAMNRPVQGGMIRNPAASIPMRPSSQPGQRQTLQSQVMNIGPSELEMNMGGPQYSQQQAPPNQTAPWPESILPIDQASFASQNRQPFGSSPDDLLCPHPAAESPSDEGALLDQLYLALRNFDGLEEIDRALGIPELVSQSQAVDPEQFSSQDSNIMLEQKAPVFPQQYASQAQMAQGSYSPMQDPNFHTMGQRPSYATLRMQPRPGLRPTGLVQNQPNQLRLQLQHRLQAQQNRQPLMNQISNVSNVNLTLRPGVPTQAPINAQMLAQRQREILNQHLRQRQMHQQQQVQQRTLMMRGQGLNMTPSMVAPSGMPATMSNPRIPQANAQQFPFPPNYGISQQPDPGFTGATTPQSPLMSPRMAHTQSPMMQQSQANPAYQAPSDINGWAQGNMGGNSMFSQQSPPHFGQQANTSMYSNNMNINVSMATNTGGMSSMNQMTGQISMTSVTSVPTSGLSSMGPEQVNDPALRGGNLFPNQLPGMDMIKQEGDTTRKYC
# [22] = HEK-293T cell viability reduction – luminescence, B-cell screen hits, cytotoxicity control for BCR NF-kB inhibitor project, dose response (AID 489021); format: functional, cell-based;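 note: HEK-293T cells carrying an NF-kB luciferase reporter; cells exposed to compound for about 14 hours before viability readout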
# HEK293 [23] = experiment: EBV LMP1 TES2 canonical NF-kB signalling blockers – cell-based, HEK293, luciferase, cherry-pick, dose response (AID 588343); format: functional; details: Homo sapiens
# X-box-binding protein 1 = X-box-binding protein 1 (Homo sapiens, UniProt P17861); format: functional, Cricetulus griseus;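 note: confirmatory dose-response counter-screen serving a CHOP assay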
# X-box-binding protein 1, sequence (P17861 whole entry): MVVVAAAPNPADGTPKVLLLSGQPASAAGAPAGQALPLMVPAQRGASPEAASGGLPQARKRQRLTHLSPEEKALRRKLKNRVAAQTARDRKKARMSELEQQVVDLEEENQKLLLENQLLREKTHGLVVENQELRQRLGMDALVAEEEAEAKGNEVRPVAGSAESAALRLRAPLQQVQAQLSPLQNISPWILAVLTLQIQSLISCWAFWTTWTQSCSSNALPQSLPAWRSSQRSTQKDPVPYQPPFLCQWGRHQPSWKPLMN
compound,measurement,setting,value
CN(C)c1ccc(-n2cccc2/C=C/[N+](=O)[O-])cc1,AC50,[1],2.93 µM (active)
same,EC50,[2],9.06 µM (active)
same,AC50,[3],10.2 µM (active)
same,AC50,[4],4.36 µM (active)
same,IC50,Melanocortin receptor 4,12.1 µM (inactive)
same,IC50,[5],> 64.6 µM (inactive)
same,IC50,[6],43.2 µM (active)
Cc1ccc(S(=O)(=O)Nc2cccc(C(=O)NCC(c3ccco3)N3CCCCC3)c2)cc1F (configuration not stated),EC50,[7],0.267 µM (active)
O=C1c2ccccc2C(=O)N1CC#CCN1CCN(C2CCCCC2)CC1,IC50,Bcl-2-like protein 10,> 100 µM (inactive)
Cc1oc2c(C)c3oc(=O)c(CCC(=O)O)c(C)c3cc2c1-c1ccccc1,EC50,HEK293 [8],7.66 µM (active)
same,IC50,HEK293 [9],> 20 µM (inactive)
same,IC50,HEK293 [10],> 20 µM (inactive)
same,EC50,[11],3.67 µM (active)
same,IC50,HEK293 [12],14.8 µM (inactive)
same,IC50,HEK293 [13],> 20 µM (inactive)
same,IC50,Tumor necrosis factor,5.03 µM (active)
same,IC50,[14],5.43 µM (active)
same,IC50,[15],5.03 µM (active)
same,IC50,[16],> 66.6 µM (inactive)
same,IC50,[17],13.4 µM (active)
same,IC50,HEK293 [18],> 20 µM (inactive)
O=C(Cc1cccc2ccccc12)Nc1ccc(-c2cc3ccccc3oc2=O)cc1,EC50,[19],22.7 µM (inactive)
same,EC50,[20],> 79.4 µM (not active)
same,EC50,[21],22 µM (not active)
same,IC50,[22],> 80 µM (inactive)
same,AC50,HEK293 [23],0.587 µM (active)
CCOc1ccc(-c2[nH]nc(C)c2Oc2ccc(OC)cc2)c(O)c1,Absolute IC50 (XBP1),X-box-binding protein 1,10 µM

# — ChEMBL document CHEMBL1201862, “PubChem BioAssay data set” (2004)
